In the experiment the test system is LCLC-103H xenograft tumors. As to the kind of experiment: Therapeutic LCLC-103H xenograft model. The experiment is classed as in vivo, SCID mice. The procedure: 5×10^6 LCLC-103H (large cell lung carcinoma) tumor cells (obtained from Leibniz-Institut DSMZ-Deutsche Sammlung von Mikroorganismen and Zellkulturen GmbH (DSMZ)) in 200 μL PBS were injected subcutaneously in the right flank of female SCID mice. Starting 14-21 days after tumor cell inoculation, when the average tumor size was >100-200 mm^3 and distinct tumor growth was observed, a single injection with 1 mg/kg (20 μg/mouse) IgG1-AXL-vcMMAE antibodies (as described in Supplementary Example 1) or control (unconjugated IgG1-b12) was given intraperitoneally (100 μL/mouse). Tumor volume was determined at least two times per week. Tumor volumes (mm^3) were calculated from caliper (PLEXX) measurements as: 0.52×(length)×(width)^2.
Tumor induction was performed by subcutaneous injection of 5×10^6 A431 or LCLC-103H tumor cells (both obtained from Leibniz-Institut—Deutsche Sammlung von Mikroorganismen and Zellkulturen GmbH (DSMZ)) in 200 μL PBS in the right flank of female SCID mice. Treatment was started 14-21 days after tumor cell inoculation, when the average tumor size was >100-200 mm^3 and distinct tumor growth was observed. Mice received a single injection or a total of 4 biweekly intraperitoneal injections with IgG1-AXL-vcMMAE ADCs or control antibody (unconjugated IgG1-b12), as indicated. Tumor volume was determined at least two times per week. Tumor volumes (mm^3) were calculated from caliper (PLEXX) measurements as: 0.52×(length)×(width)2.

As to “IgG1-AXL-107-vcMMAE: IgG1-AXL-107 conjugated at cysteines to vcMMAE (mc-vc-PAB linker, MMAE)”, the anti-tumor activity result reads like this: (Example 9: single injection 1 mg/kg intraperitoneally) “induced tumor regression”; (Example 13: 1 mg/kg intraperitoneally) “induced regression”.

For the origin of these results see patent US20200397913A1, “AXL-SPECIFIC ANTIBODY-DRUG CONJUGATES FOR CANCER TREATMENT” (GENMAB A/S, priority 2015, published 2020).
